According to PubChem BioAssay (NCI):
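Abbreviation: GI50, concentration required for 50% inhibition of growth. The concentration for full growth arrest is given as TGI.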

Columns and labels:
Test in all cases: NCI tumour cell line growth inhibition, 384-well format
A498 renal = system: A498 renal
A549 NSCLC = system: A549 NSCLC
BT-549 breast = system: BT-549 breast
CAKI-1 renal = system: CAKI-1 renal
CCRF-CEM leukemia = system: CCRF-CEM leukemia
COLO 205 colon = system: COLO 205 colon
EKVX NSCLC = system: EKVX NSCLC
HCC-2998 colon = system: HCC-2998 colon
HCT-116 colon = system: HCT-116 colon
HL-60(TB) leukemia = system: HL-60(TB) leukemia
HOP-92 NSCLC = system: HOP-92 NSCLC
HS 578T breast = system: HS 578T breast
HT29 colon = system: HT29 colon
IGROV1 ovarian = system: IGROV1 ovarian
K-562 leukemia = system: K-562 leukemia
M14 melanoma = system: M14 melanoma
MALME-3M melanoma = system: MALME-3M melanoma
MDA-MB-231 breast = system: MDA-MB-231 breast
MDA-MB-435 melanoma = system: MDA-MB-435 melanoma
MDA-MB-468 breast = system: MDA-MB-468 breast
MOLT-4 leukemia = system: MOLT-4 leukemia
NCI-H226 lung = system: NCI-H226 lung
NCI-H23 lung = system: NCI-H23 lung
NCI-H322M lung = system: NCI-H322M lung
NCI-H460 NSCLC = system: NCI-H460 NSCLC
NCI-H522 lung = system: NCI-H522 lung
NCI/ADR-RES ovarian = system: NCI/ADR-RES ovarian
OVCAR-3 ovarian = system: OVCAR-3 ovarian
OVCAR-4 ovarian = system: OVCAR-4 ovarian
OVCAR-5 ovarian = system: OVCAR-5 ovarian
OVCAR-8 ovarian = system: OVCAR-8 ovarian
PC-3 prostate = system: PC-3 prostate
RPMI-8226 leukemia = system: RPMI-8226 leukemia
SF-268 CNS = system: SF-268 CNS
SF-295 CNS = system: SF-295 CNS
SK-MEL-2 melanoma = system: SK-MEL-2 melanoma
SK-MEL-5 melanoma = system: SK-MEL-5 melanoma
SK-OV-3 ovarian = system: SK-OV-3 ovarian
SN12C renal = system: SN12C renal
SNB-19 CNS = system: SNB-19 CNS
SNB-75 CNS = system: SNB-75 CNS
SR leukemia = system: SR leukemia
SW-620 colon = system: SW-620 colon
TK-10 renal = system: TK-10 renal
U251 glioblastoma = system: U251 glioblastoma
UACC-257 melanoma = system: UACC-257 melanoma
UACC-62 melanoma = system: UACC-62 melanoma

## FC(F)(F)c1ccc(CNc2ccc(Cc3c[nH]c4ncc(Cl)cc34)cn2)cn1
A498 renal
  GI50: 7.91 µM
  TGI: 19.1 µM
A549 NSCLC
  GI50: 13.1 µM
  TGI: 26.2 µM
BT-549 breast
  GI50: 12.2 µM
  TGI: 25.5 µM
CAKI-1 renal
  GI50: 14.7 µM
  TGI: 28.8 µM
CCRF-CEM leukemia
  GI50: 6.19 µM
  TGI: 17.9 µM
COLO 205 colon
  GI50: 14.9 µM
  TGI: 28.4 µM
EKVX NSCLC
  GI50: 10.7 µM
  TGI: 23.7 µM
HCC-2998 colon
  GI50: 13.8 µM
  TGI: 26.9 µM
HCT-116 colon
  GI50: 12.8 µM
  TGI: 25.9 µM
HL-60(TB) leukemia
  GI50: 6.17 µM
  TGI: 16.3 µM
HOP-92 NSCLC
  GI50: 8.41 µM
  TGI: 21.3 µM
HS 578T breast
  GI50: 2.15 µM
  TGI: 7.11 µM
HT29 colon
  GI50: 9.79 µM
  TGI: 23 µM
IGROV1 ovarian
  GI50: 13.5 µM
  TGI: 27.8 µM
K-562 leukemia
  GI50: 5.09 µM
  TGI: 17.2 µM
M14 melanoma
  GI50: 13.3 µM
  TGI: 26.2 µM
MALME-3M melanoma
  GI50: 8.2 µM
  TGI: 17.4 µM
MDA-MB-231 breast
  GI50: 13.7 µM
  TGI: 26.7 µM
MDA-MB-435 melanoma
  GI50: 16.2 µM
  TGI: 30.1 µM
MDA-MB-468 breast
  GI50: 2.82 µM
  TGI: 9.15 µM
MOLT-4 leukemia
  GI50: 2.83 µM
  TGI: 9.58 µM
NCI-H226 lung
  GI50: 5.32 µM
  TGI: 16.3 µM
NCI-H23 lung
  GI50: 11 µM
  TGI: 23 µM
NCI-H322M lung
  GI50: 8.81 µM
  TGI: 21.6 µM
NCI-H460 NSCLC
  GI50: 12.9 µM
  TGI: 26.1 µM
NCI-H522 lung
  GI50: 8.58 µM
  TGI: 21 µM
NCI/ADR-RES ovarian
  GI50: 9.91 µM
  TGI: 21.9 µM
OVCAR-3 ovarian
  GI50: 15.7 µM
  TGI: 29.8 µM
OVCAR-4 ovarian
  GI50: 9.12 µM
  TGI: 22.2 µM
OVCAR-5 ovarian
  GI50: 15.7 µM
  TGI: 29.6 µM
OVCAR-8 ovarian
  GI50: 10.3 µM
  TGI: 23.1 µM
PC-3 prostate
  GI50: 12.7 µM
  TGI: 25.7 µM
RPMI-8226 leukemia
  GI50: 6.96 µM
  TGI: 19.1 µM
SF-268 CNS
  GI50: 8.91 µM
  TGI: 21.7 µM
SF-295 CNS
  GI50: 11.3 µM
  TGI: 23.7 µM
SK-MEL-2 melanoma
  GI50: 7.92 µM
  TGI: 20.4 µM
SK-MEL-5 melanoma
  GI50: 6.22 µM
  TGI: 18.3 µM
SK-OV-3 ovarian
  GI50: 12 µM
  TGI: 26 µM
SN12C renal
  GI50: 14 µM
  TGI: 27.1 µM
SNB-19 CNS
  GI50: 15.9 µM
  TGI: 30.5 µM
SNB-75 CNS
  GI50: 2.73 µM
  TGI: 8.45 µM
SR leukemia
  GI50: 2.13 µM
  TGI: 5.5 µM
SW-620 colon
  GI50: 15.1 µM
  TGI: 28.8 µM
TK-10 renal
  GI50: 14.4 µM
  TGI: 28.6 µM
U251 glioblastoma
  GI50: 14.2 µM
  TGI: 27.5 µM
UACC-257 melanoma
  GI50: 12.4 µM
  TGI: 25.9 µM
UACC-62 melanoma
  GI50: 12.5 µM
  TGI: 25.3 µM
